From patent US20260294915A1, “COMBINATION THERAPY COMPRISING A MAT2A INHIBITOR AND A TOPOISOMERASE INHIBITOR, A SPLICING INHIBITOR SULFONAMIDE, OR A KIF18 INHIBITOR” (IDEAYA BIOSCIENCES, INC., priority 2023, published 2026)
Read-outs that look alike come from different tables or passages of the source.

Experiments:
[1] = system: LMSU (RCB1062) human gastric tumor cell-derived xenograft (CDX) models; assay: Anti-tumor activity in LMSU gastric mouse xenograft (CDX) model (Example 9); type: in vivo; conditions: Compound A 10 mg/kg oral once per day
Protocol: All mouse studies were approved by the Institutional Animal Care and Use Committee (IACUC) based on guidelines from the National Institutes of Health (NIH). Mice were maintained under pathogen-free conditions, and food and water were provided ad libitum.
The anti-tumor effect of Compound A and irinotecan hydrochloride as single-agents or in combination was assessed in the LMSU (RCB1062) human gastric tumor cell-derived xenograft (CDX) models. LMSU was expanded in HamF10 with 10% fetal bovine serum. Cells were free of mycoplasma and authenticated by STR profiling, and ten million cells in log growth phase were resuspended in Hanks Balanced Salt Solution containing 50% Matrigel and implanted subcutaneously into the flank of each recipient female Crl:NU-Foxn1nu mouse. Mice were housed in microisolator cages with corn cob bedding with additional enrichment consisting of sterile nesting material (Innovive) and Bio-huts (Bio-Serv). Water (Innovive) and diet (Teklad Global 19% Protein Extruded Diet 2919, Irradiated) were provided ad libitum. The environment was maintained on a 12-hour light cycle at approximately 68-72° F. and 40-60% relative humidity.
Tumor Volume (TV) was calculated using the following formula: TV (mm^3)=(width×width×length)/2. Tumor growth inhibition (TGI) was calculated by [(TV controlfinal−TV treatedfinal)/(TV controlfinal−TV controlinitial)×100]. TV was analyzed for statistical significance utilizing GraphPad Prism version 10.2.2. Repeated Measures 2-Way ANOVA with Dunnet's Multiple Comparisons was utilized, and P-values were derived from data collected on the date of Vehicle group termination and were considered statistically significant if less than 0.05.
Mean tumor volume at dosing start was approximately 185 mm^3, with seven mice randomized to each treatment group. Mice were dosed orally, once per day, with Vehicle, Compound A at 10 mg/kg, or dosed for 3 consecutive days followed by 4 days holiday by intraperitoneal (IP) injection of Compound B at 5 mg/kg or 10 mg/kg, or combination of Compound A and Compound B. The vehicle group was a combination of Vehicle A (for Compound A, 0.5% 400 cps methylcellulose with 0.5% Tween-80 in sterile water) and Vehicle B (for irinotecan hydrochloride, Saline).

HuP-T4 = assay: 10-day proliferation screen with Compound A pre-treatment (Example 3); type: cell-based; conditions: Homo sapiens, read-out: Growth IC50
Protocol: (§1) A 10-day proliferation screen was performed in 15 pancreatic, non-small cell lung, and bladder cancer cell lines: 10 MTAP null and 5 MTAP wild-type. Optimal cell seeding for all cell lines was determined by assessing the growth over a range of seeding densities in a 384-well format to identify conditions that permitted proliferation for 10 days. Cells were then plated at the optimal seeding density in the presence of 20-150 nM of Compound A or DMSO vehicle control. Cells were incubated at 37° C. with 5% CO2 for 4 days to allow for target engagement of the pre-treatment compound. Maintaining the pre-treatment condition, cells were also treated with an 11-point, three-fold titration series of compounds from a chemically diverse library of 424 compounds. The combination compound concentrations ranged from 0.2 nM to 14,679 nM. A plate of cells was harvested at the time of combination compound addition to quantify the number of cells at the start of the combination (T0). For cell quantification, the harvested cells were lysed with CellTiter-Glo (CTG) (Promega) reagent according to the manufacturer's protocol and the chemiluminescent signal was detected on a Synergy Neo plate reader (ThermoFisher, serial #140715A). CTG estimates cell number through detection of cellular ATP levels. Cells were incubated with the drug combinations at 37° C. with 5% CO2 for an additional 6 days for a total of a 10-day assay including the pre-treatment. Cells were then lysed with CTG and the chemiluminescent signal was measured. CTG values obtained after the 10-day treatment were background subtracted, expressed as a percent of the T0 value, and plotted against compound concentration. Data were fit with a four-parameter equation to generate concentration response curves. Growth IC50 values and maximal growth inhibition were compared between the DMSO and the Compound A pre-treated cells for each combination titration. Combination hit calling was based on the observation of >2-fold shift in growth IC50 and/or greater than 20% decrease in growth inhibition.

J82 = assay: as above; type: cell-based; conditions: Homo sapiens, read-out: Growth IC50
Protocol: as §1

NCI-H2228 = assay: as above; type: cell-based; conditions: Homo sapiens, read-out: Growth IC50
Protocol: as §1

NCI-H520 = assay: as above; type: cell-based; conditions: Homo sapiens, read-out: Growth IC50
Protocol: as §1

NCI-H838 = assay: as above; type: cell-based; conditions: Homo sapiens, read-out: Growth IC50
Protocol: as §1

OE33 = assay: as above; type: cell-based; conditions: Homo sapiens, read-out: Growth IC50
Protocol: as §1

RT112/84 = assay: as above; type: cell-based; conditions: Homo sapiens, read-out: Growth IC50
Protocol: as §1

SW900 = assay: as above; type: cell-based; conditions: Homo sapiens, read-out: Growth IC50
Protocol: as §1

TCCSUP = assay: as above; type: cell-based; conditions: Homo sapiens, TCC-SUP, read-out: Growth IC50
Protocol: as §1

UMUC11 = assay: as above; type: cell-based; conditions: read-out: Growth IC50
Protocol: as §1

UMUC5 = assay: as above; type: cell-based; conditions: read-out: Growth IC50
Protocol: as §1

[2] = system: 15 pancreatic, non-small cell lung, and bladder cancer cell lines: 10 MTAP null and 5 MTAP wild-type; assay: 10-day proliferation screen with Compound A pre-treatment, panel summary (Example 3); type: cell-based
Protocol: as §1, with “The combination compound concentrations ranged from 0.2 nM to 14,679 nM.” left out, “CTG estimates cell number through detection of cellular ATP levels. Cells were incubated with the drug combinations at 37° C. with 5% CO2 for an additional 6 days for a total of a 10-day assay including the pre-treatment.” left out, “Data were fit with a four-parameter equation to generate concentration response curves. Growth IC50 values and maximal growth inhibition were compared between the DMSO and the Compound A pre-treated cells for each combination titration. Combination hit calling was based on the observation of >2-fold shift in growth IC50 and/or greater than 20% decrease in growth inhibition.” left out

Structure (SMILES): Nc1nc(=O)n(-c2ccccc2Cl)c2nc(C(F)(F)F)ccc12 [Compound A]
- Day 11 TGI [1]: −6%
- TGI [1]: no significant TGI
- Tumor Regression Rate on Day 11 [1]: 0%
- Day 11 TV (mean) ([1]; initial TV 186, vehicle 1018): 1069 mm^3

Structure (SMILES): NS(=O)(=O)c1ccc(S(=O)(=O)Nc2cccc3c(Cl)c[nH]c23)cc1 [Indisulam, N-(3-chloro-1H-indol-7-yl)benzene-1,4-disulfonamide]
- IC50 (HuP-T4; HuP-T4, Cmpd A pre-treatment 150 nM): 549 nM
- IC50 (HuP-T4; HuP-T4, DMSO pre-treatment): 1070 nM
- IC50 (J82; J82, Cmpd A pre-treatment 150 nM): 7100 nM
- IC50 (J82; J82, DMSO pre-treatment): 12500 nM
- IC50 (NCI-H2228; NCI-H2228, Cmpd A pre-treatment 80 nM): 191 nM
- IC50 (NCI-H2228; NCI-H2228, DMSO pre-treatment): 167 nM
- IC50 (NCI-H520; NCI-H520, Cmpd A pre-treatment 80 nM): 790 nM
- IC50 (NCI-H520; NCI-H520, DMSO pre-treatment): 727 nM
- IC50 (NCI-H838; NCI-H838, Cmpd A pre-treatment 20 nM): 539 nM
- IC50 (NCI-H838; NCI-H838, Cmpd A pre-treatment 150 nM): 342 nM
- IC50 (NCI-H838; NCI-H838, DMSO pre-treatment (control for 20 nM Cmpd A)): 1050 nM
- IC50 (NCI-H838; NCI-H838, DMSO pre-treatment (control for 150 nM Cmpd A)): 807 nM
- IC50 (OE33; OE33, Cmpd A pre-treatment 150 nM): 5370 nM
- IC50 (OE33; OE33, DMSO pre-treatment): 12100 nM
- IC50 (RT112/84; RT112/84, Cmpd A pre-treatment 150 nM): 229 nM
- IC50 (RT112/84; RT112/84, DMSO pre-treatment): 913 nM
- IC50 (SW900; SW900, Cmpd A pre-treatment 80 nM): 1100 nM
- IC50 (SW900; SW900, DMSO pre-treatment): 2280 nM
- IC50 (TCCSUP; Cmpd A pre-treatment 150 nM): 6080 nM
- IC50 (TCCSUP; DMSO pre-treatment): 8660 nM
- IC50 (UMUC11; Cmpd A pre-treatment 150 nM): 1270 nM
- IC50 (UMUC11; DMSO pre-treatment): 864 nM
- IC50 (UMUC5; Cmpd A pre-treatment 150 nM): 807 nM
- IC50 (UMUC5; DMSO pre-treatment): 1830 nM
- cell lines with growth IC50 shifts ≥2-fold ([2]; MTAP-deficient cell lines): 7/10
- cell lines with growth IC50 shifts ≥2-fold ([2]; wild type cell lines): 1/5
